Laboratory results from the NIST ThermoML archive (doi:10.1021/je050089u).

Assay: excess molar enthalpy (molar enthalpy of mixing); xn = mol fraction of the nth substance listed
Conditions: Fluid (supercritical or subcritical phases)

COC(=O)OC [dimethyl carbonate] + O=C=O
excess molar enthalpy [kcal/mol]
Conditions | 298.15 K | 303.15 K
5000 kPa, x2 = 0.0793 | -0.207 | -0.237
5000 kPa, x2 = 0.1538 | -0.427 | -0.446
5000 kPa, x2 = 0.224 | -0.636 | -0.641
5000 kPa, x2 = 0.2902 | -0.832 | -0.833
5000 kPa, x2 = 0.3528 | -1.02 | -1.01
5000 kPa, x2 = 0.4121 | -1.15 | -1.19
5000 kPa, x2 = 0.4683 | -1.33 | -1.33
5000 kPa, x2 = 0.5216 | -1.48 | -1.48
5000 kPa, x2 = 0.5723 | -1.59 | -1.6
5000 kPa, x2 = 0.6206 | -1.71 | -1.71
5000 kPa, x2 = 0.6666 | -1.82 | -1.83
5000 kPa, x2 = 0.7104 | -1.92 | -1.93
5000 kPa, x2 = 0.7523 | -1.99 | -2.01
5000 kPa, x2 = 0.7686 | – | -2.04
5000 kPa, x2 = 0.7766 | – | -2.04
5000 kPa, x2 = 0.7924 | -2.07 | –
5000 kPa, x2 = 0.8307 | -2.13 | -1.48
5000 kPa, x2 = 0.8382 | -2.09 | –
5000 kPa, x2 = 0.8674 | -1.69 | -1.15
5000 kPa, x2 = 0.9026 | -1.26 | -0.913
5000 kPa, x2 = 0.9364 | -0.785 | -0.571
5000 kPa, x2 = 0.9688 | -0.384 | -0.254
5000 kPa, x2 = 0.9969 | 0.0153 | –
5500 kPa, x2 = 0.0798 | – | -0.214
5500 kPa, x2 = 0.1548 | -0.4 | -0.438
5500 kPa, x2 = 0.2253 | -0.618 | -0.619
5500 kPa, x2 = 0.2918 | -0.794 | -0.798
5500 kPa, x2 = 0.3546 | -0.967 | -0.989
5500 kPa, x2 = 0.4139 | -1.12 | -1.15
5500 kPa, x2 = 0.4702 | -1.27 | -1.3
5500 kPa, x2 = 0.5235 | -1.4 | -1.41
5500 kPa, x2 = 0.5742 | -1.52 | -1.54
5500 kPa, x2 = 0.6223 | -1.61 | -1.64
5500 kPa, x2 = 0.6682 | -1.73 | -1.75
5500 kPa, x2 = 0.712 | -1.82 | -1.85
5500 kPa, x2 = 0.7537 | -1.91 | -1.92
5500 kPa, x2 = 0.7936 | -1.98 | -1.98
5500 kPa, x2 = 0.8318 | -2.02 | -2.02
5500 kPa, x2 = 0.8392 | – | -2.01
5500 kPa, x2 = 0.8466 | – | -1.89
5500 kPa, x2 = 0.8683 | -2.04 | -1.62
5500 kPa, x2 = 0.9033 | -2.03 | -1.18
5500 kPa, x2 = 0.9368 | -1.51 | -0.733
5500 kPa, x2 = 0.9691 | -0.767 | -0.331
6000 kPa, x2 = 0.0803 | – | -0.202
6000 kPa, x2 = 0.1557 | -0.389 | -0.41
6000 kPa, x2 = 0.2265 | -0.558 | -0.6
6000 kPa, x2 = 0.2932 | -0.797 | -0.78
6000 kPa, x2 = 0.3561 | -0.905 | -0.923
6000 kPa, x2 = 0.4156 | -1.04 | -1.1
6000 kPa, x2 = 0.4718 | -1.19 | -1.23
6000 kPa, x2 = 0.5252 | -1.29 | -1.36
6000 kPa, x2 = 0.5758 | -1.4 | -1.47
6000 kPa, x2 = 0.6239 | -1.52 | -1.58
6000 kPa, x2 = 0.6697 | -1.62 | -1.67
6000 kPa, x2 = 0.7134 | -1.69 | -1.76
6000 kPa, x2 = 0.755 | -1.73 | -1.82
6000 kPa, x2 = 0.7947 | -1.8 | –
6000 kPa, x2 = 0.8327 | -1.85 | –
6000 kPa, x2 = 0.8691 | -1.87 | –
6000 kPa, x2 = 0.9039 | -1.89 | –
6000 kPa, x2 = 0.9502 | -1.86 | –
6000 kPa, x2 = 0.9693 | -1.78 | –
6000 kPa, x2 = 0.9817 | -0.864 | –
